Measurements reported in patent publication EP4215522A1, “DERIVATIVES OF 4-CHROMONE AS INHIBITORS OF THE RDRP POLYMERASE OF SARS-COV-2 VIRUS AND METHOD FOR THE PREPARATION THEREOF” (priority 2022, dated 2023).
Like-named read-outs stand apart in the source and are kept apart here.

Experiments:
[1] = molecular target: RNA-dependent RNA polymerase (SARS-CoV-2) (Severe acute respiratory syndrome coronavirus 2, UniProt P0DTD1); assay: in vitro enzymatic assay of RdRp activity (AlphaScreen detection); format: biochemical
Kinetic solubility = format: physicochemical
Description: (§1) The solubility and stability of some compounds of the invention and known compounds were evaluated.

Plasma stability in mice = format: in vitro ADME; conditions: mouse plasma
Description: as §1

[2] = Microsomal stability in mice; format: in vitro ADME; conditions: mouse microsomes
Description: as §1

[3] = RdRp reaction 37°C, 60 minutes, duplicate, 30 minutes preincubation, 1% DMSO
[4] = compound at 25 µM, read-out: % inhib. (25 µM)
[5] = compound at 100 µM, read-out: % inhib. (100 µM)

| Structure (SMILES) | inhibition at 25 µM ([1]; read-out: % inhibition 25 µM) | inhibition at 100 µM ([1]; read-out: % inhibition 100 µM) | IC50 [1, 3] | inhibition at 25 µM [1, 4] | inhibition at 100 µM [1, 5] | Kinetic solubility Sk (Kinetic solubility) | Plasma stability in mice t1/2 (Plasma stability in mice) | Microsomal stability in mice t1/2 [2] | IC50 (µM) [1, 3] |
| --- | --- | --- | --- | --- | --- | --- | --- | --- | --- |
| O=c1cc(-c2ccc(O)c(O)c2)oc2cc(F)cc(O)c12 [reference compound] | 0% | 25% | – | – | – | – | – | – | – |
| O=c1cc(/C=C/c2ccc(O)c(O)c2)oc2cccc(O)c12 [(18), (E)-2-(3,4-dihydroxystyryl)-5-hydroxy-4H-chromen-4-one] | – | – | 7 ± 1.2 µM | 54% | 94% | <1 µM | – | – | – |
| O=C(OCCc1ccc(O)c(O)c1)c1cc(=O)c2c(O)cccc2o1 [(24c), 3,4-dihydroxyphenethyl-5-hydroxy-4-oxo-4H-chromen-2-carboxylate] | – | – | 44.1 ± 1.1 µM | 36% | 72% | – | – | – | – |
| O=c1c(O)c(-c2ccc(O)c(O)c2)oc2cc(O)cc(O)c12 [quercetin, reference compound] | – | – | – | – | – | 16 µM | 7 min | >60 min | – |
| O=c1c(OCCCO)c(-c2ccc(O)c(O)c2)oc2cc(O)cc(O)c12 [(9c), 2-(3,4-dihydroxyphenyl)-5,7-dihydroxy-3-(3-hydroxypropoxy)-4H-chromen-4-one] | – | – | 5.6 ± 0.1 µM | 71% | 95% | 231 µM | 90 min | 60 min | – |
| O=C(NCCNC(=O)c1cc(=O)c2c(O)cccc2o1)c1ccc(O)c(O)c1 [(28), N-(2-(3,4-dihydroxybenzamide)ethyl)-5-hydroxy-4-oxo-4H-chromen-2-carboxamide] | – | – | 15.9 ± 1.1 µM | 79% | 100% | – | – | – | – |
| O=c1cc(Cc2ccc(O)c(O)c2)oc2cccc(O)c12 [(13a), 2-(3,4-dihydroxybenzyl)-5-hydroxy-4H-chromen-4-one] | – | – | 8.5 ± 0.7 µM | 78% | 99% | 63 µM | >120 min | >60 min | – |
| CCCc1c(-c2ccc(O)c(O)c2)oc2cc(O)cc(O)c2c1=O [(5b), 2-(3,4-dihydroxyphenyl)-5,7-dihydroxy-3-propyl-4H-chromen-4-one] | – | – | 8.8 ± 0.7 µM | 72% | 98% | 13 µM | – | – | – |
| O=C(Nc1ccc(O)c(O)c1)c1cc(=O)c2c(O)cccc2o1 [(24a), N-(3,4-dihydroxyphenyl)-5-hydroxy-4-oxo-4H-chromen-2-carboxamide] | – | – | 7.1 ± 0.8 µM | 80% | 100% | 65 µM | 83 ± 13 min | 60 min | – |
| Cc1c(-c2ccc(O)c(O)c2)oc2cc(O)cc(O)c2c1=O [(5a), 2-(3,4-dihydroxyphenyl)-5,7-dihydroxy-3-methyl-4H-chromen-4-one] | – | – | 4.3 ± 1.1 µM | 94% | 99% | 32 µM | – | – | – |
| CCCCC(c1ccc(O)c(O)c1)c1cc(=O)c2c(O)cccc2o1 (stereo not shown) [(13c), 2-(1-(3,4-dihydroxyphenyl)pentyl)-5-hydroxy-4H-chromen-4-one] | – | – | – | 16% | 37% | – | – | – | – |
| O=c1cc(-c2ccc(O)c(O)c2)oc2cc(O)cc(O)c12 [luteolin, reference compound] | – | – | – | – | – | 21 µM | >120 min | >60 min | – |
| O=c1c(OCCO)c(-c2ccc(O)c(O)c2)oc2cc(O)cc(O)c12 [(9b), 2-(3,4-dihydroxyphenyl)-5,7-dihydroxy-3-(2-hydroxyethoxy)-4H-chromen-4-one] | – | – | 6.1 ± 1 µM | 83% | 100% | 167 µM | >120 min | >60 min | – |
| O=C(NCCNC(=S)Nc1ccc(O)c(O)c1)c1cc(=O)c2c(O)cccc2o1 [(31), N-(2-(3-(3,4-dihydroxyphenyl)thiourea)ethyl)-5-hydroxy-4-oxo-4H-chromen-2-carboxamide] | – | – | 3.4 ± 1.2 µM | 86% | 94% | <1 µM | – | – | – |
| CC(c1ccc(O)c(O)c1)c1cc(=O)c2c(O)cccc2o1 (stereo not shown) [(13b), 2-(1-(3,4-dihydroxyphenyl)ethyl)-5-hydroxy-4H-chromen-4-one] | – | – | 4.1 ± 1.4 µM | 65% | 100% | 165 µM | >120 min | >60 min | – |
| O=C(Oc1ccc(O)c(O)c1)c1cc(=O)c2c(O)cccc2o1 [(24b), 3,4-dihydroxyphenyl-5-hydroxy-4-oxo-4H-chromen-2-carboxylate] | – | – | 2 ± 1 µM | 95% | 94% | <1 µM | – | – | – |
| COc1cccc2oc(-c3ccc(O)cc3C)cc(=O)c12 [reference compound] | 3% | 34% | – | – | – | – | – | – | – |
| O=c1cc(C(CCCC(F)(F)F)c2ccc(O)c(O)c2)oc2cccc(O)c12 (stereo not shown) [(13d), 2-(1-(3,4-dihydroxyphenyl)-5,5,5-trifluoropentyl)-5-hydroxy-4H-chromen-4-one] | – | – | – | 8% | 10% | – | – | – | NO inhibition |
| O=c1cc(-c2ccc3c(c2)OC(F)(F)O3)oc2cc(O)cc(O)c12 [reference compound] | 0% | 51% | – | – | – | – | – | – | – |
| CCCCOc1c(-c2ccc(O)c(O)c2)oc2cc(O)cc(O)c2c1=O [(9a), 3-butoxy-2-(3,4-dihydroxyphenyl)-5,7-dihydroxy-4H-chromen-4-one] | – | – | 5.3 ± 1 µM | 52% | 98% | 156 µM | >120 min | >60 min | – |
| O=c1cc(CCc2ccc(O)c(O)c2)oc2cccc(O)c12 [(20), 2-(3,4-dihydroxyphenethyl)-5-hydroxy-4H-chromen-4-one] | – | – | 5.8 ± 0.7 µM | 80% | 97% | 67 µM | >120 min | >60 min | – |
